{
  "source": "patent US20170196854A1",
  "about": "“USE OF ANTHELMINTIC AGENTS AGAINST DIROFILARIA IMMITIS” (INTERVET INTERNATIONAL B.V., priority 2014, published 2017)",
  "key": {"[1]": {"tested_on": "Dirofilaria immitis microfilariae", "assay": "Microfilaricidal activity against Dirofilaria immitis microfilariae in 96-well plates", "type": "cell-based", "details": "in Canis lupus familiaris, read-out: EC50 (half maximal effective concentration), microfilaricidal activity"}, "[2]": {"tested_on": "L4 larvae of Dirofilaria immitis", "assay": "microbe, parasite or virus in culture", "type": "cell-based", "details": "72 h, read-out: MIC100 (lowest dose that results in complete loss of motility)"}},
  "data": [
    {"smiles": "C[C@@H](CN1CCN(c2ccc(OC(F)(F)F)cc2)CC1)C(=O)N1CCC(Nc2ccc([N+](=O)[O-])c(C(F)(F)F)c2)CC1", "note": "[Example 1037]", "values": [
      {"measurement": "EC50", "setting": "[1]", "result": "< 10", "unit": "µM"},
      {"measurement": "MIC", "setting": "[2]", "result": "< 5", "unit": "µM"}
    ]}
  ]
}
